From publication PMC7153937, “Imipridone Anticancer Compounds Ectopically Activate the ClpP Protease and Represent a New Scaffold for Antibiotic Development” (Genetics, 2020)

Molecular target: T1, S. aureus ClpP (Staphylococcus aureus, UniProt Q2G036)
T1 construct: S. aureus ClpP expressed from the GAL1 promoter in S. cerevisiae
Assay: yeast surrogate genetic assay: ClpP-dependent growth inhibition vs. empty vector
Type: cell-based

T1 sequence (Q2G036 whole entry): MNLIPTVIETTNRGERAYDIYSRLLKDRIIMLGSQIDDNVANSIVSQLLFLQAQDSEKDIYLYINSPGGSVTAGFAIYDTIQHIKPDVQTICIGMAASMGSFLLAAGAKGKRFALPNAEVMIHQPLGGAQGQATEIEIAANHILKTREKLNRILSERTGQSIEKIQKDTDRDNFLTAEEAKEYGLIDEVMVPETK

O=C1C2=C(CCN(Cc3ccccc3)C2)N2CCN=C2N1Cc1ccc(C(F)(F)F)cc1 [ONC212]
IC50: 5.4 µM
